These results are taken from ChEMBL document CHEMBL5096160, “Targeting SHP2 as a therapeutic strategy for inflammatory diseases” (Eur J Med Chem, 2021).

SMILES strings stand for the structures. In brackets after ≈: the same amount, converted by molar mass.

Test [1] deals with T1, Tyrosine-protein phosphatase non-receptor type 11 (Homo sapiens) (UniProt Q06124).
T1 sequence (whole entry): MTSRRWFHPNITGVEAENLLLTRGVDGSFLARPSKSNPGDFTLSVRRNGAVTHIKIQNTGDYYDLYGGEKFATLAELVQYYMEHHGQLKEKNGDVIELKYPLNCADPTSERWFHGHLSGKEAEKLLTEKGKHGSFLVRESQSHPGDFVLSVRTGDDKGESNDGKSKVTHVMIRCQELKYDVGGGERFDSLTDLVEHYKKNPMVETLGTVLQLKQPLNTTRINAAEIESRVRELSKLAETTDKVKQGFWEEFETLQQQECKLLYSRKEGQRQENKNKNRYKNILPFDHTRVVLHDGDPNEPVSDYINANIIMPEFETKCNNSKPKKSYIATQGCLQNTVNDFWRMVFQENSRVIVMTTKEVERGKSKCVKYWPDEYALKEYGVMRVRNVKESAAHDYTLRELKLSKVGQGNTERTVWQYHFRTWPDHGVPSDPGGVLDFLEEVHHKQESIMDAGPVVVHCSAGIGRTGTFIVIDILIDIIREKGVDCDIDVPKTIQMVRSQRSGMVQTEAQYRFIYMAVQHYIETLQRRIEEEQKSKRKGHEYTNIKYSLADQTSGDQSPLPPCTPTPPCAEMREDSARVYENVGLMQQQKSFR
Nature of the test: Inhibition of recombinant SHP2 (unknown origin).

Test [2] addresses T2, Tyrosine-protein phosphatase non-receptor type 11 (Homo sapiens, UniProt Q06124).
T2 sequence (Q06124 whole entry): T1 sequence (whole entry)
Nature of the test: Inhibition of N-terminal 6His-tagged full-length H2N-VE(pY)LDLDLD(PEG8)RVD(pY)VVVDQQ-amide-activated SHP2 (247 to 529 residues) (unknown origin) expressed in Escherichia coli BL21 (DE3) using DiFMUP as substrate preincubated for 10 to 30 mins with activating peptide prior to compound addition for 30 mins followed by substrate addition and measured for 6 mins by fluorescence based assay.

Test [3] addresses T1, Tyrosine-protein phosphatase non-receptor type 11 (Homo sapiens). The test is described as follows: Inhibition of SHP2 in human LS180 cells. Format: cell-based.
A further test relates to SW1463. The test is described as follows: Cytotoxicity against human SW1463 cells assessed as inhibition of cell growth incubated for 120 hrs by MTT assay. In kind it is functional, cell-based. The note with it: SW1463, 120 h. Background: Tetrazolium dyes change colour on reduction, which living cells bring about.
Test [4] addresses T2, Tyrosine-protein phosphatase non-receptor type 11. The test is described as follows: Inhibition of human SHP2 catalytic domain expressed in Escherichia coli using p-nitrophenyl phosphate as substrate by spectrophotometric method.
The target is the same in test [5]. Nature of the test: Inhibition of N-terminal hexaHis-tagged catalytic domain of human SHP2 (248 to 527 residues) expressed as Escherichia coli Rosetta (DE3) using DiFMUP as substrate preincubated for 1 hr followed by substrate addition by fluorescence based analysis.
Test [6] has the same target. The test is described as follows: Inhibition of human recombinant SHP2 expressed in Escherichia coli using p-nitrophenyl phosphate as substrate preincubated for 2 mins followed by substrate addition by microplate spectrophotometer analysis.
The next test has as its system Capan-2. Nature of the test: Cytotoxicity against human Capan-2 cells harbouring K-ras mutant assessed as reduction in cell viability incubated for 144 hrs. In kind it is functional, cell-based. The note with it: Capan-2, 144 h.
Test [7] can be described thus: Cytotoxicity against human LN-444 cells assessed as reduction in cell viability incubated for 72 hrs by WST-1 assay. In kind it is functional, cell-based. The note with it: LN-444, 72 h.
The subject of the next test is BaF3. The test is described as follows: Cytotoxicity against mouse BaF3 cells assessed as inhibition of cell proliferation incubated for 48 hrs by MTT assay. In kind it is functional, cell-based. The settings on record: BaF3, 48 h.
In test [8] the target is Tyrosine-protein phosphatase non-receptor type 6 (Homo sapiens) (UniProt P29350). Nature of the test: Inhibition of SHP1 (unknown origin) using EFpYAEVGRSPPDPAK incubated for 0.5 hrs by malachite green reagent assay.
Sequence of Tyrosine-protein phosphatase non-receptor type 6 (Homo sapiens) (P29350 whole entry): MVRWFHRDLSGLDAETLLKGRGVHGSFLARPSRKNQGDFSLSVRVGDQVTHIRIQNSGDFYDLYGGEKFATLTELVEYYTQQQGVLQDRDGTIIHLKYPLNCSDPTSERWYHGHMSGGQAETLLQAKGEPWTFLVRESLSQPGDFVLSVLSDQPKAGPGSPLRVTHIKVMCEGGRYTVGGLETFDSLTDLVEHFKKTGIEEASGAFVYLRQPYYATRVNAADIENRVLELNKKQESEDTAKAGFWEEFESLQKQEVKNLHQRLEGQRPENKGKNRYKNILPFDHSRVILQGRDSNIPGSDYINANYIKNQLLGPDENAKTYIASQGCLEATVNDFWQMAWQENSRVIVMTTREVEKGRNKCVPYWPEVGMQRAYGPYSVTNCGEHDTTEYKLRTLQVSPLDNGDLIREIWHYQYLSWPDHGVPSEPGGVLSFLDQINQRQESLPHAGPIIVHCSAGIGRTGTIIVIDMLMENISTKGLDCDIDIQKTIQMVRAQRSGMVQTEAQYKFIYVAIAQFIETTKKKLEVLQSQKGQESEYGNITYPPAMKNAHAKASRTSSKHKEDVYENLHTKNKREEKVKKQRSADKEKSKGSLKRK
Test [9] deals with T2, Tyrosine-protein phosphatase non-receptor type 11. The test is described as follows: Inhibition of SHP2 (unknown origin) using EFpYAEVGRSPPDPAK incubated for 0.5 hrs by malachite green reagent based assay.
Test [10] has the same target. Nature of the test: Inhibition of GST-tagged SHP2 (unknown origin) using 8-difluoro-4-methylumbelliferyl phosphate as a substrate measured after 30 mins by fluorescence based analysis.
Test [11] concerns the target Tyrosine-protein phosphatase non-receptor type 11 (Mus musculus, UniProt P35235). Nature of the test: Inhibition of SHP2 in mouse EMT6 cells harboring SOS1 mutation. In kind it is cell-based.
For test [12], the target named is T2, Tyrosine-protein phosphatase non-receptor type 11. The test is described as follows: Inhibition of recombinant human GST-tagged SHP2 expressed in Escherichia coli BL21 incubated for 30 mins by DiFMUP fluorescence assay.
A further test relates to A549. Nature of the test: Antiproliferative activity against human A549 cells assessed as inhibition of cell growth measured after 72 hrs by CCK-8 assay. In kind it is functional, cell-based. The note with it: A549, 72 h.

Sequence of Tyrosine-protein phosphatase non-receptor type 11 (Mus musculus, UniProt P35235) (P35235 2-593 limits assumed, stated change not applied): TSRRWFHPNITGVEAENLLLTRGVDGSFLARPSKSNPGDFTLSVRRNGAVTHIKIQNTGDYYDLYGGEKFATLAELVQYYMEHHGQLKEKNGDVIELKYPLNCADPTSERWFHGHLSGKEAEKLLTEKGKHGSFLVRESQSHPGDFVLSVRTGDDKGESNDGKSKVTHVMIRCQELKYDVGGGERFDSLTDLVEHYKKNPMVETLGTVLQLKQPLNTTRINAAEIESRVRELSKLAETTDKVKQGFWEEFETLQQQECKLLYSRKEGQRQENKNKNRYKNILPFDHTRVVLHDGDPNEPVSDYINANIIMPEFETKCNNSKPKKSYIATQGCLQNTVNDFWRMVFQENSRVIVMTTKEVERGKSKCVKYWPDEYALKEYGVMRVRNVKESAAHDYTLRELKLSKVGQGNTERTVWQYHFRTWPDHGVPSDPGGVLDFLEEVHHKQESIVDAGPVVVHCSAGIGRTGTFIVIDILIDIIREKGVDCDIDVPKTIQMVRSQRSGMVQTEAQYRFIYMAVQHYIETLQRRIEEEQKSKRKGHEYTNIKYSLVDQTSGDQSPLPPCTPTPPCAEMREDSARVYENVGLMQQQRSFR

On to `O=C(O)c1ccccc1-c1ccc(/C=c2/sc3nc4cc(Br)cnc4n3c2=O)o1`, for which, in [1], the IC5 is 1.1 µM.

A word on the IC50: it is the concentration needed to halve the response being measured. For the compound `N[C@@H]1COCC12CCN(c1cnc3c(Sc4cccc(Cl)c4Cl)n[nH]c3n1)CC2`, the figures for the concentration for half-maximal inhibition (IC50) (in test [2]; in the test with SW1463) were 2.1 nM and 590 nM, respectively. The same compound gave an MIC in [3] of 10 µM (≈ 4.51 µg/mL).

For the compound `CCCCCCCCCCCC(=O)C1=C2C3=COC(C)=CC3=CC(=O)[C@]2(C)OC1=O`, the IC50 in test [4] turned out to be 800 nM.

Turning to `O=C1/C(=N/Nc2ccc(S(=O)(=O)O)cc2)C(c2ccc([N+](=O)[O-])cc2)=NN1c1ccc([N+](=O)[O-])cc1`, in test [5], 71 nM corresponded to half-maximal inhibition (IC50).

Regarding `CCOC(=O)c1sc(-c2ccc([N+](=O)[O-])cc2)nc1COc1ccc(Cl)cc1`, the 50% inhibitory concentration (IC50) in [6] is 4300 nM.

Turning to `CC1(N)CCN(c2cnc(-c3cccc(Cl)c3Cl)c(N)n2)CC1`, the IC50 is 15700 nM in the test with Capan-2, 38000 nM in [7] and 19900 nM in the test with BaF3.

For the compound `CCOC(=O)c1sc(-c2ccc(OC)cc2)nc1COc1ccc(Cl)cc1`, the IC50 in test [6] worked out at 990 nM.

In test [8], `NCC1CCN(c2ncc(-c3cccc(Cl)c3Cl)cc2CO)CC1` gave an IC5 of 100 µM. The IC50 in test [9] stood at 1360 nM; with BaF3, 2350 nM.

In test [10], `C/C(=C\[C@H](O)C[C@@H](C)[C@H]1CC[C@@]2(C)[C@@H]3CC[C@H]4C(C)(C)[C@@H](O)CC[C@@]45C[C@@]35CC[C@]12C)C(=O)O` showed a concentration for half-maximal inhibition (IC50) of 19000 nM.

`Cc1nc(N2CCC3(CC2)CO[C@@H](C)[C@H]3N)c(CO)nc1-c1cccc(Cl)c1Cl`: in [11], the concentration for half-maximal inhibition (IC50) was determined as 7 nM.

For the compound `CC(=O)O[C@H]1CC[C@]2(C)c3c(O)c4c(c(O)c3C(=O)CC2C1(C)C)C[C@H](C)O4` (some centres undefined), the half-inhibitory concentration (IC50) is 8790 nM in test [12] and 10800 nM in the test with A549.

Compound `CCCCCCCCCC[C@@H](C)C(=O)C1=C2C3=COC(C)=CC3=CC(=O)[C@]2(C)OC1=O` showed an IC50 in [4] of 700 nM.
